Test results from patent publication US7601716B2, “Pyridopyrazines and derivatives thereof as ALK and c-Met inhibitors” (Cephalon, Inc., priority 2006, dated 2009).

target: baculovirus-expressed ALK (Homo sapiens, UniProt Q9UM73); experiment: ALK Kinase Assay (ELISA/TRF, PLC-γ substrate); assay type: biochemical; conditions: read-out: ALK Kinase Inhibition (IC50); note: 1 µM ATP (Km level)
Description: Example compounds were tested for their ability to inhibit the kinase activity of baculovirus-expressed ALK using a modification of the ELISA protocol reported for trkA in Angeles, T. S. et al., Anal. Biochem. 1996, 236, 49-55, which is incorporated herein by reference in its entirety. Phosphorylation of the substrate, phospholipase C-gamma (PLC-γ) generated as a fusion protein with glutathione S-transferase (GST) as reported in Rotin, D. et al., EMBO J. 1992, 11, 559-567, which is incorporated herein by reference in its entirety, was detected with a europium-labeled anti-phosphotyrosine antibody and measured by time-resolved fluorescence (TRF). Briefly, each 96-well plate was coated with 100 μL/well of 10 μg/mL substrate (phospholipase C-γ) in Tris-buffered saline (TBS). […] The reaction was initiated by adding enzyme (30 ng/ml ALK) and was allowed to proceed at 37° C. for 15 minutes. Detection of the phosphorylated product was performed by adding 100 μl/well of Eu-N1 labeled PT66 antibody (Perkin Elmer # AD0041). Incubation at 37° C. then proceeded for one (1) hour, followed by addition of 100 μL enhancement solution (Wallac #1244-105). The plate was gently agitated and after thirty minutes, the fluorescence of the resulting solution was measured using the EnVision 2100 (or 2102) multilabel plate reader (Perkin Elmer).
Data analysis was performed using ActivityBase (IDBS, Guilford, UK). IC50 values were calculated by plotting percent inhibition versus log10 of the concentration of compound and fitting to the nonlinear regression sigmoidal dose-response (variable slope) equation in XLFit (IDBS, Guilford, UK).

Sequence of baculovirus-expressed ALK (Q9UM73 19-1620): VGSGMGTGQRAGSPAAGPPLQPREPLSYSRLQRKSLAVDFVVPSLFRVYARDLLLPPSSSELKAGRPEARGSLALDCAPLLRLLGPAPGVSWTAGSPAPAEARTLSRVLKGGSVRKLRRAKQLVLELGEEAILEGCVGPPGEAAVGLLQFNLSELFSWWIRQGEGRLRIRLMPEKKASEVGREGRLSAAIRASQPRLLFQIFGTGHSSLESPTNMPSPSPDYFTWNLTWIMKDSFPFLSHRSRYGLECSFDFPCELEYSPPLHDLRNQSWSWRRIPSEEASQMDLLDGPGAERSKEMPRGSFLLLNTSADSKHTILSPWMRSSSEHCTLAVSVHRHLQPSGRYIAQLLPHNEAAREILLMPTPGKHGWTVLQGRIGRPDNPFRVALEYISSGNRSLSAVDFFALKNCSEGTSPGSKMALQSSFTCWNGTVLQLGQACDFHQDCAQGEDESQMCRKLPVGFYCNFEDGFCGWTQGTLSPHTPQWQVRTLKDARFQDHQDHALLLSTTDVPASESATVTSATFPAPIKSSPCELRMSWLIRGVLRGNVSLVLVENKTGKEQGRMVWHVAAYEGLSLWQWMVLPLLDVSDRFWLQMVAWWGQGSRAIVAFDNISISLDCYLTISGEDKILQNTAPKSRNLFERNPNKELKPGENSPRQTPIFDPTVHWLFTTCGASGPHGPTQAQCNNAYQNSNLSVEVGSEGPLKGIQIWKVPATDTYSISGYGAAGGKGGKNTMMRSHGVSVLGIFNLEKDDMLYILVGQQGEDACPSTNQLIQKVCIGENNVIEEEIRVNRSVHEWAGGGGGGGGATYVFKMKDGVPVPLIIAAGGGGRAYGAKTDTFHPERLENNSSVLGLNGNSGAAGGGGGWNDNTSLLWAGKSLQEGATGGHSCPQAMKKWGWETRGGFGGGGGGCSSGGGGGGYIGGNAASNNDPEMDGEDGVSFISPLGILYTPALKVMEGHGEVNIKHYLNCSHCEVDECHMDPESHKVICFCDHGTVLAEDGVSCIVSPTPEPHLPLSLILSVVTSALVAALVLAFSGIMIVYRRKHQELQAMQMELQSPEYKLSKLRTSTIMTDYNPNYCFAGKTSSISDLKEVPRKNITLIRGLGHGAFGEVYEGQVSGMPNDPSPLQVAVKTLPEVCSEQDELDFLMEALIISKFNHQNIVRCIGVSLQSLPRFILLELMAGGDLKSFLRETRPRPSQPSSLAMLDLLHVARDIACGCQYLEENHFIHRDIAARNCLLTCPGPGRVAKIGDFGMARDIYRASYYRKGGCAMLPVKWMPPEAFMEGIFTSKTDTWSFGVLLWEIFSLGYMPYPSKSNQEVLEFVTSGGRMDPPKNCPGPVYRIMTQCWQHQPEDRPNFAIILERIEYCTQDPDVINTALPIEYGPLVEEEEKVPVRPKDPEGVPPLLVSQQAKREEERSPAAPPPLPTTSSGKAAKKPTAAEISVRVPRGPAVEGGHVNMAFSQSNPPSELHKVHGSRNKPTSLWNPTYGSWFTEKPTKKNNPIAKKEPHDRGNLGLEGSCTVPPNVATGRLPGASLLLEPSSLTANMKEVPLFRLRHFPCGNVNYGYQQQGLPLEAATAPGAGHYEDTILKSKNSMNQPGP

Row | SMILES | IC50
1 | O=C(c1cccc(-c2cnc3c(c2)N(Cc2cc(Cl)ccc2C(F)(F)F)CCN3)c1)N1CCC(c2noc3cc(F)ccc23)CC1 [Example 325, (3-{1-[5-Chloro-2-(trifluoromethyl)benzyl]-1,2,3,4-tetrahydropyrido[2,3-b]pyrazin-7-yl}phenyl)-[4-(6-fluorobenzo[d]isoxazol-3-yl)piperidin-1-yl]methanone] | 100 to 1000 nM
2 | CCOC(=O)N1CCC(NC(=O)c2cccc(-c3cnc4c(c3)N(Cc3cc(Cl)ccc3C(F)(F)F)CCN4)c2)CC1 [Example 326, 4-(3-{1-[5-Chloro-2-(trifluoromethyl)benzyl]-1,2,3,4-tetrahydropyrido[2,3-b]pyrazin-7-yl}benzoylamino)piperidine-1-carboxylic acid ethyl ester] | 100 to 1000 nM
3 | O=C(NC1CCN(Cc2ccccc2)CC1)c1cccc(-c2cnc3c(c2)N(Cc2cc(Cl)ccc2C(F)(F)F)CCN3)c1 [Example 327, N-(1-Benzylpiperidin-4-yl)-3-{1-[5-chloro-2-(trifluoromethyl)benzyl]-1,2,3,4-tetrahydropyrido[2,3-b]pyrazin-7-yl}benzamide] | < 100 nM
4 | O=C(NCC(c1ccccc1)c1ccccc1)c1cccc(-c2cnc3c(c2)N(Cc2cc(Cl)ccc2C(F)(F)F)CCN3)c1 [Example 328, 3-{1-[5-Chloro-2-(trifluoromethyl)benzyl]-1,2,3,4-tetrahydropyrido[2,3-b]pyrazin-7-yl}-N-(2,2-diphenylethyl)benzamide] | 100 to 1000 nM
5 | CN1CCC(NC(=O)c2cccc(-c3cnc4c(c3)N(Cc3cc(Cl)ccc3C(F)(F)F)CCN4)c2)CC1 [Example 329, 3-{1-[5-Chloro-2-(trifluoromethyl)benzyl]-1,2,3,4-tetrahydropyrido[2,3-b]pyrazin-7-yl}-N-(1-methylpiperidin-4-yl)benzamide] | < 100 nM
6 | O=C(c1cccc(-c2cnc3c(c2)N(Cc2cc(Cl)ccc2C(F)(F)F)CCN3)c1)N1CCN(CCc2ccccn2)CC1 [Example 330, (3-{1-[5-Chloro-2-(trifluoromethyl)benzyl]-1,2,3,4-tetrahydropyrido[2,3-b]pyrazin-7-yl}phenyl)-[4-(2-pyridin-2-yl-ethyl)piperazin-1-yl]methanone] | 100 to 1000 nM
7 | O=C(NCc1ccc(OC(F)(F)F)cc1)c1cccc(-c2cnc3c(c2)N(Cc2cc(Cl)ccc2C(F)(F)F)CCN3)c1 [Example 331, 3-{1-[5-Chloro-2-(trifluoromethyl)benzyl]-1,2,3,4-tetrahydropyrido[2,3-b]pyrazin-7-yl}-N-[4-(trifluoromethoxy)benzyl]benzamide] | 1000 to 10000 nM
8 | O=C(NCc1cc(C(F)(F)F)cc(C(F)(F)F)c1)c1cccc(-c2cnc3c(c2)N(Cc2cc(Cl)ccc2C(F)(F)F)CCN3)c1 [Example 332, N-[3,5-Bis(trifluoromethyl)benzyl]-3-{1-[5-chloro-2-(trifluoromethyl)benzyl]-1,2,3,4-tetrahydropyrido[2,3-b]pyrazin-7-yl}benzamide] | 100 to 1000 nM
9 | O=C(NC(c1ccccc1)c1ccccc1)c1cccc(-c2cnc3c(c2)N(Cc2cc(Cl)ccc2C(F)(F)F)CCN3)c1 [Example 333, N-Benzhydryl-3-{1-[5-chloro-2-(trifluoromethyl)benzyl]-1,2,3,4-tetrahydropyrido[2,3-b]pyrazin-7-yl}benzamide] | 100 to 1000 nM
10 | O=C(NCc1ccncc1)c1cccc(-c2cnc3c(c2)N(Cc2cc(Cl)ccc2C(F)(F)F)CCN3)c1 [Example 334, 3-{1-[5-Chloro-2-(trifluoromethyl)benzyl]-1,2,3,4-tetrahydropyrido[2,3-b]pyrazin-7-yl}-N-pyridin-4-ylmethylbenzamide] | < 100 nM
11 | O=C(NCc1cccnc1)c1cccc(-c2cnc3c(c2)N(Cc2cc(Cl)ccc2C(F)(F)F)CCN3)c1 [Example 335, 3-{1-[5-Chloro-2-(trifluoromethyl)benzyl]-1,2,3,4-tetrahydropyrido[2,3-b]pyrazin-7-yl}-N-pyridin-3-ylmethylbenzamide] | 100 to 1000 nM
12 | CC(C)NC(=O)CN1CCN(C(=O)c2cccc(-c3cnc4c(c3)N(Cc3cc(Cl)ccc3C(F)(F)F)CCN4)c2)CC1 [Example 336, 2-[4-(3-{1-[5-Chloro-2-(trifluoromethyl)benzyl]-1,2,3,4-tetrahydropyrido[2,3-b]pyrazin-7-yl}benzoyl)piperazin-1-yl]-N-isopropylacetamide] | 100 to 1000 nM
13 | Cc1cc(N2CCN(C(=O)c3cccc(-c4cnc5c(c4)N(Cc4cc(Cl)ccc4C(F)(F)F)CCN5)c3)CC2)c2ccccc2n1 [Example 337, (3-{1-[5-Chloro-2-(trifluoromethyl)benzyl]-1,2,3,4-tetrahydropyrido[2,3-b]pyrazin-7-yl}phenyl)-[4-(2-methylquinolin-4-yl)piperazin-1-yl]methanone] | 100 to 1000 nM
14 | NS(=O)(=O)c1ccc(CCNC(=O)c2cccc(-c3cnc4c(c3)N(Cc3cc(Cl)ccc3C(F)(F)F)CCN4)c2)cc1 [Example 338, 3-{1-[5-Chloro-2-(trifluoromethyl)benzyl]-1,2,3,4-tetrahydropyrido[2,3-b]pyrazin-7-yl}-N-[2-(4-sulfamoylphenyl)ethyl]benzamide] | 100 to 1000 nM
15 | O=C(c1cccc(-c2cnc3c(c2)N(Cc2cc(Cl)ccc2C(F)(F)F)CCN3)c1)N1CCN(c2cnccn2)CC1 [Example 339, (3-{1-[5-Chloro-2-(trifluoromethyl)benzyl]-1,2,3,4-tetrahydropyrido[2,3-b]pyrazin-7-yl}phenyl)-(2,3,5,6-tetrahydro-[1,2′]bipyrazinyl-4-yl)methanone] | 100 to 1000 nM
16 | O=C(NCc1csc(-c2ccccc2)n1)c1cccc(-c2cnc3c(c2)N(Cc2cc(Cl)ccc2C(F)(F)F)CCN3)c1 [Example 340, 3-{1-[5-Chloro-2-(trifluoromethyl)benzyl]-1,2,3,4-tetrahydropyrido[2,3-b]pyrazin-7-yl}-N-(2-phenylthiazol-4-ylmethyl)benzamide] | 100 to 1000 nM
17 | O=C(c1cccc(-c2cnc3c(c2)N(Cc2cc(Cl)ccc2C(F)(F)F)CCN3)c1)N1CCOCC1 [Example 341, (3-{1-[5-Chloro-2-(trifluoromethyl)benzyl]-1,2,3,4-tetrahydropyrido[2,3-b]pyrazin-7-yl}phenyl)morpholin-4-ylmethanone] | 100 to 1000 nM
18 | O=C(NCc1cccc2ccccc12)c1cccc(-c2cnc3c(c2)N(Cc2cc(Cl)ccc2C(F)(F)F)CCN3)c1 [Example 342, 3-{1-[5-Chloro-2-(trifluoromethyl)benzyl]-1,2,3,4-tetrahydropyrido[2,3-b]pyrazin-7-yl}-N-naphthalen-1-ylmethylbenzamide] | 100 to 1000 nM
19 | O=C(NC1CCc2ccccc21)c1cccc(-c2cnc3c(c2)N(Cc2cc(Cl)ccc2C(F)(F)F)CCN3)c1 (centres unmarked) [Example 343, 3-{1-[5-Chloro-2-(trifluoromethyl)benzyl]-1,2,3,4-tetrahydropyrido[2,3-b]pyrazin-7-yl}-N-indan-1-ylbenzamide] | 100 to 1000 nM
20 | COc1cccc(N2CCN(C(=O)c3cccc(-c4cnc5c(c4)N(Cc4cc(Cl)ccc4C(F)(F)F)CCN5)c3)CC2)c1 [Example 344, (3-{1-[5-Chloro-2-(trifluoromethyl)benzyl]-1,2,3,4-tetrahydropyrido[2,3-b]pyrazin-7-yl}phenyl)-[4-(3-methoxyphenyl)piperazin-1-yl]methanone] | 100 to 1000 nM
21 | COc1ccc(N2CCN(C(=O)c3cccc(-c4cnc5c(c4)N(Cc4cc(Cl)ccc4C(F)(F)F)CCN5)c3)CC2)cc1 [Example 345, (3-{1-[5-Chloro-2-(trifluoromethyl)benzyl]-1,2,3,4-tetrahydropyrido[2,3-b]pyrazin-7-yl}phenyl)-[4-(4-methoxyphenyl)piperazin-1-yl]methanone] | 100 to 1000 nM
22 | O=C(NC1CCCCC1)c1cccc(-c2cnc3c(c2)N(Cc2cc(Cl)ccc2C(F)(F)F)CCN3)c1 [Example 346, 3-{1-[5-Chloro-2-(trifluoromethyl)benzyl]-1,2,3,4-tetrahydropyrido[2,3-b]pyrazin-7-yl}-N-cyclohexylbenzamide] | 100 to 1000 nM
23 | CS(=O)(=O)c1ccc(CNC(=O)c2cccc(-c3cnc4c(c3)N(Cc3cc(Cl)ccc3C(F)(F)F)CCN4)c2)cc1 [Example 347, 3-{1-[5-Chloro-2-(trifluoromethyl)benzyl]-1,2,3,4-tetrahydropyrido[2,3-b]pyrazin-7-yl}-N-(4-methanesulfonylbenzyl)benzamide] | 100 to 1000 nM
24 | O=C(NCc1ccccc1Cl)c1cccc(-c2cnc3c(c2)N(Cc2cc(Cl)ccc2C(F)(F)F)CCN3)c1 [Example 348, N-(2-Chlorobenzyl)-3-{1-[5-Chloro-2-(trifluoromethyl)benzyl]-1,2,3,4-tetrahydropyrido[2,3-b]pyrazin-7-yl}benzamide] | 100 to 1000 nM
25 | O=C(NCc1ccc(Cl)cc1)c1cccc(-c2cnc3c(c2)N(Cc2cc(Cl)ccc2C(F)(F)F)CCN3)c1 [Example 349, N-(4-Chlorobenzyl)-3-{1-[5-Chloro-2-(trifluoromethyl)benzyl]-1,2,3,4-tetrahydropyrido[2,3-b]pyrazin-7-yl}benzamide] | 100 to 1000 nM
26 | O=C(NCc1cccc(Cl)c1)c1cccc(-c2cnc3c(c2)N(Cc2cc(Cl)ccc2C(F)(F)F)CCN3)c1 [Example 350, N-(3-Chlorobenzyl)-3-{1-[5-Chloro-2-(trifluoromethyl)benzyl]-1,2,3,4-tetrahydropyrido[2,3-b]pyrazin-7-yl}benzamide] | 1000 to 10000 nM
